Measured values taken from patent US12187727B2, “Methods for antagonizing a melanocortin 4 receptor” (Pfizer Inc., priority 2020, dated 2025).

biological target: human Melanocortin-4 receptor (MC4R) (Homo sapiens (Human), UniProt P32245); assay: Functional in vitro MC4R antagonist potency assay (cAMP HTRF in CHO cells); format: cell-based; conditions: human MC4R in CHO cells, cAMP HTRF, 200 nM aMSH challenge; Kb from IC50 by Leff-Dougall equation; geometric mean; read-out: Kb (nM) Antagonist geometric
Experimental: Example BB. Functional In Vitro MC4R Antagonist Potency Assay
The functional in vitro antagonist potency for test compounds was determined by monitoring intracellular cyclic adenosine monophosphate (cAMP) levels in Chinese hamster ovary (CHO—) cells stably expressing the human Melanocortin-4 receptor (MC4R). Following agonist activation, human MC4R associates with the G-protein complex causing the Gα subunit to exchange bound GDP for GTP, followed by dissociation of the Ga-GTP complex. The activated Gα subunit can couple to downstream effectors to regulate the levels of second messengers or cAMP within the cell. Thereby, determination of intracellular cAMP levels allows for pharmacological characterization. Intracellular cAMP levels are quantitated using a homogenous assay utilizing the Homogeneous Time-Resolved Fluorescence (HTRF) technology from CisBio. The method is a competitive immunoassay between native cAMP produced by cells and the cAMP labelled with the acceptor dye, d2. The two entities then compete for binding to a monoclonal anti-cAMP antibody labeled with cryptate. The specific signal is inversely proportional to the concentration of cAMP in the cells.
Test compounds were solubilized to 30 mM in 100% dimethyl sulfoxide (DMSO) and stored. […] The final compound concentration range in the assay was 400 nM to […], with a final DMSO concentration of 0.1%.
(95% O2: 5% CO2) overnight, with micro-clime lids (Labcyte, Cat No. LLS-0310). […] Cells were incubated with compound for 30 minutes at 37° C. (95% O2: 5% CO2) before addition of 5 μL EC80, agonist stimulation (200 nM α-melanocyte stimulating hormone, aMSH, Bachem) and another 30-minute incubation at 37° C. (95% O2: 5% CO2). Intracellular cAMP levels were quantified as per Cisbio's protocol (5 uL of D2 and then 5 uL Cryptate, incubated for 1-2 hours at room temperature).
Data expressed as nM cAMP were then normalized to control wells using Activity Base (IDBS). Zero percent effect (ZPE) was defined as nM of cAMP generated from ECK, agonist stimulation (200 nM aMSH). In the absence of an antagonist control compound, one hundred percent effect (HPE) was defined as nM of cAMP generated from assay buffer/vehicle only.

human Melanocortin-4 receptor (MC4R), sequence (P32245 whole entry): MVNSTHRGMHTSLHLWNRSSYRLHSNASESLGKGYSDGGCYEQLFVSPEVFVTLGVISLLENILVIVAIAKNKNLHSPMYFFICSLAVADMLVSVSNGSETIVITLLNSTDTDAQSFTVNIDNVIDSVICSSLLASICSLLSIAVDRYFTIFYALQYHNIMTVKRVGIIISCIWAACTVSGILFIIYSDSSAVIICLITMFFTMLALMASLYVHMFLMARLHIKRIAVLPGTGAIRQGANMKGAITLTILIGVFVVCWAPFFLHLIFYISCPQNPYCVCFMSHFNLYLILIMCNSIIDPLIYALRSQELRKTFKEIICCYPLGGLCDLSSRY

SMILES	Kb
COc1cc([C@@H](C)C(=O)N2CC[C@@]3(CCc4cc(-c5ncc(F)cn5)c(C)nc4N3)C2)c(F)cn1 [Example 146, (2R)-2-(5-fluoro-2-methoxypyridin-4-yl)-1-[(2S)-6-(5-fluoropyrimidin-2-yl)-7-methyl-3,4-dihydro-1H-spiro[1,8-naphthyridine-2,3′-pyrrolidin]-1′-yl]propan-1-one]	1.2 nM
COc1cc([C@@H](C)C(=O)N2CC[C@@]3(CCc4cc(-c5cccc(OC(F)F)n5)c(C)nc4N3)C2)c(F)cn1 [Example 198, (2R)-1-{(2S)-6-[6-(difluoromethoxy)pyridin-2-yl]-7-methyl-3,4-dihydro-1H-spiro[1,8-naphthyridine-2,3′-pyrrolidin]-1′-yl}-2-(5-fluoro-2-methoxypyridin-4-yl)propan-1-one]	8.3 nM
COc1cc([C@@H](C)C(=O)N2CC[C@@]3(CCc4cc(-c5cccc(C(F)F)n5)c(C)nc4N3)C2)c(F)cn1 [Example 181, (2R)-1-{(2S)-6-[6-(difluoromethyl)pyridin-2-yl)-7-methyl-3,4-dihydro-1H-spiro[1,8-naphthyridine-2,3′-pyrrolidin]-1′-yl}-2-(5-fluoro-2-methoxypyridin-4-yl)propan-1-one]	14 nM
COc1cc([C@@H](C)C(=O)N2CC[C@@]3(CCc4cc(-c5nc6ccccn6n5)c(C)nc4N3)C2)c(Cl)cn1 [Example 117, (2R)-2-(5-chloro-2-methoxypyridin-4-yl)-1-[(2S)-7-methyl-6-([1,2,4]triazolo[1,5-a]pyridin-2-yl)-3,4-dihydro-1H-spiro[1,8-naphthyridine-2,3′-pyrrolidin]-1′-yl]propan-1-one]	0.07 nM
COc1cc(C(C)C(=O)N2CC[C@@]3(CCc4cc(-c5nnn(C)n5)c(C)nc4N3)C2)ccn1 (single isomer, unassigned) [Example 125]	5.1 nM
COc1cc([C@@H](C)C(=O)N2CC[C@@]3(CCc4cc(-c5cnn(C)n5)c(C)nc4N3)C2)c(F)cn1 [Example 118, (2R)-2-(5-fluoro-2-methoxypyridin-4-yl)-1-[(2S)-7-methyl-6-(2-methyl-2H-1,2,3-triazol-4-yl)-3,4-dihydro-1H-spiro[1,8-naphthyridine-2,3′-pyrrolidin]-1′-yl]propan-1-one]	0.93 nM
COc1cc([C@@H](C)C(=O)N2CC[C@@]3(CCc4cc(-c5nccnc5C)c(C)nc4N3)C2)c(F)cn1 [Example 164, (2R)-2-(5-fluoro-2-methoxypyridin-4-yl)-1-[(2S)-7-methyl-6-(3-methylpyrazin-2-yl)-3,4-dihydro-1H-spiro[1,8-naphthyridine-2,3′-pyrrolidin]-1′-yl]propan-1-one]	> 57 nM
Cc1nc2c(cc1-c1nnn(C)n1)CC[C@@]1(CCN(C(=O)[C@H](C)c3ccc(C(F)(F)F)cc3)C1)N2 (single isomer, unassigned) [Example 109]	5.8 nM
COc1cc([C@@H](C)C(=O)N2CCC3(CCc4cc(-c5nc(OC)n(C)n5)c(C)nc4N3)C2)c(F)cn1 (single isomer, unassigned) [Example 112]	2 nM
COc1cc([C@@H](C)C(=O)N2CC[C@@]3(CCc4cc(-c5nc(C(F)F)n(C6CC6)n5)c(C)nc4N3)C2)c(F)cn1 [Example 189, (2R)-1-{(2S)-6-[1-cyclopropyl-5-(difluoromethyl)-1H-1,2,4-triazol-3-yl]-7-methyl-3,4-dihydro-1H-spiro[1,8-naphthyridine-2,3′-pyrrolidin]-1′-yl}-2-(5-fluoro-2-methoxypyridin-4-yl)propan-1-one]	4.3 nM
COc1cc([C@@H](C)C(=O)N2CC[C@@]3(CCc4cc(-c5nc(C(F)F)n(C)n5)c(C)nc4N3)C2)c(F)cn1 [Example 122, (2R)-1-{(2S)-6-[5-(difluoromethyl)-1-methyl-1H-1,2,4-triazol-3-yl]-7-methyl-3,4-dihydro-1H-spiro[1,8-naphthyridine-2,3′-pyrrolidin]-1′-yl}-2-(5-fluoro-2-methoxypyridin-4-yl)propan-1-one]	0.11 nM
COc1cc([C@@H](C)C(=O)N2CC[C@@]3(CCc4cc(-c5ccnnc5)c(C)nc4N3)C2)c(F)cn1 [Example 141, (2R)-2-(5-fluoro-2-methoxypyridin-4-yl)-1-[(2S)-7-methyl-6-(pyridazin-4-yl)-3,4-dihydro-1H-spiro[1,8-naphthyridine-2,3′-pyrrolidin]-1′-yl]propan-1-one]	29 nM
COc1cc([C@@H](C)C(=O)N2CC[C@@]3(CCc4cc(-c5cncc(C)n5)c(C)nc4N3)C2)c(F)cn1 [Example 156, (2R)-2-(5-fluoro-2-methoxypyridin-4-yl)-1-[(2S)-7-methyl-6-(6-methylpyrazin-2-yl)-3,4-dihydro-1H-spiro[1,8-naphthyridine-2,3′-pyrrolidin]-1′-yl]propan-1-one]	20 nM
COc1cc(C(C)C(=O)N2CC[C@@]3(CCc4cc(-c5nnn(C)n5)c(C)nc4N3)C2)nc(C(F)F)n1 (single isomer, unassigned) [Example 127]	1.1 nM
COc1cc(C(C)C(=O)N2CC[C@@]3(CCc4cc(-c5ncccn5)c(C)nc4N3)C2)c(C)cn1 (single isomer, unassigned) [Example 136]	0.16 nM
COc1ncc(F)c(C(C)C(=O)N2CC[C@@]3(CCc4cc(-c5nnn(C)n5)c(C)nc4N3)C2)n1 (single isomer, unassigned) [Example 134]	> 97 nM

same assay, conditions: read-out: Kb (nM) Antagonist geometric mean

SMILES	Kb
COc1cc(OC)cc([C@@H](C)C(=O)N2CC[C@@]3(CCc4cc(-c5cnn(C)c5)c(C)nc4N3)C2)c1 (single isomer, unassigned) [Example 90]	0.4 nM
COc1cc([C@@H](C)C(=O)N2CC[C@@]3(CCc4ccc(C)nc4N3)C2)c(F)cn1 (single isomer, unassigned) [Example 98]	19 nM
COc1cc([C@@H](C)C(=O)N2CC[C@@]3(CCc4cc(-c5nc(C(F)(F)F)n(C)n5)c(C)nc4N3)C2)c(Cl)cn1 (single isomer, unassigned) [Example 94]	0.12 nM
COc1cc([C@@H](C)C(=O)N2CC[C@@]3(CCc4cc(-c5ncc(C(F)F)cn5)c(C)nc4N3)C2)c(F)cn1 [Example 21, (2R)-1-{(2S)-6-[5-(difluoromethyl)pyrimidin-2-yl]-7-methyl-3,4-dihydro-1H-spiro[1,8-naphthyridine-2,3′-pyrrolidin]-1′-yl}-2-(5-fluoro-2-methoxypyridin-4-yl)propan-1-one]	20 nM
Cc1nc2c(cc1-c1ncccn1)CC[C@@]1(CCN(C(=O)[C@H](C)c3ccc(F)c(F)c3)C1)N2 (single isomer, unassigned) [Example 50]	2.9 nM
COc1cc([C@](C)(F)C(=O)N2CC[C@@]3(CCc4cc(-c5ncccn5)c(C)nc4N3)C2)ccn1 (single isomer, unassigned) [Example 46]	7.2 nM
[2H]C([2H])([2H])Oc1cc([C@@H](C)C(=O)N2CC[C@@]3(CCc4cc(-c5ncccn5)c(C)nc4N3)C2)c(F)cn1 [Example 74, (2R)-2-{5-fluoro-2-[(^2H3)methyloxy]pyridin-4-yl}-1-[(2S)-7-methyl-6-(pyrimidin-2-yl)-3,4-dihydro-1H-spiro[1,8-naphthyridine-2,3′-pyrrolidin]-1′-yl]propan-1-one]	0.6 nM
COc1ccc([C@@H](C)C(=O)N2CC[C@@]3(CCc4cc(-c5ncccn5)c(C)nc4N3)C2)cc1F (single isomer, unassigned) [Example 42]	9.4 nM
COc1cc([C@@H](C)C(=O)N2CC[C@@]3(CCc4ccc(C)nc4N3)C2)nc(C)n1 (single isomer, unassigned) [Example 23, 2-(6-methoxy-2-methylpyrimidin-4-yl)-1-(7-methyl-3,4-dihydro-1H-spiro[1,8-naphthyridine-2,3′-pyrrolidin]-1′-yl)propan-1-one]	24 nM
COc1cc([C@@H](C)C(=O)N2CCC3(CCc4cc(-c5coc(C)n5)c(C)nc4N3)C2)c(F)cn1 (mixture of isomers) [Example 33, (2R)-2-(5-fluoro-2-methoxypyridin-4-yl)-1-[7-methyl-6-(2-methyl-1,3-oxazol-4-yl)-3,4-dihydro-1H-spiro[1,8-naphthyridine-2,3′-pyrrolidin]-1′-yl]propan-1-one]	3.2 nM
COc1cc([C@@H](C)C(=O)N2CC[C@]3(CCc4cc(-c5ncccn5)c(C)nc4N3)C2)c(F)cn1 [Example 29, (2R)-2-(5-fluoro-2-methoxypyridin-4-yl)-1-[(2R)-7-methyl-6-(pyrimidin-2-yl)-3,4-dihydro-1H-spiro[1,8-naphthyridine-2,3′-pyrrolidin]-1′-yl]propan-1-one]	12 nM
